Measurements: publication PMC8248323 (Clinical Pharmacology in Drug Development, 2021)

Key:
CYP2C19 = CYP2C19 (Homo sapiens, UniProt P33261); test: In vitro CYP inhibition; type: in vitro ADME
CYP2E1 = CYP2E1 (Homo sapiens, UniProt P05181); test: In vitro CYP inhibition; type: in vitro ADME
[1] = target: breast cancer resistance protein (Homo sapiens, UniProt Q9UNQ0); test: In vitro transporter inhibition; type: in vitro ADME
OAT1 = OAT1 (Homo sapiens, UniProt Q4U2R8); test: In vitro transporter inhibition; type: in vitro ADME
MATE1 = MATE1 (Homo sapiens, UniProt Q96FL8); test: In vitro transporter inhibition; type: in vitro ADME
[2] = both phase 3 studies; cited from earlier work

Sequence of CYP2C19 (P33261 whole entry): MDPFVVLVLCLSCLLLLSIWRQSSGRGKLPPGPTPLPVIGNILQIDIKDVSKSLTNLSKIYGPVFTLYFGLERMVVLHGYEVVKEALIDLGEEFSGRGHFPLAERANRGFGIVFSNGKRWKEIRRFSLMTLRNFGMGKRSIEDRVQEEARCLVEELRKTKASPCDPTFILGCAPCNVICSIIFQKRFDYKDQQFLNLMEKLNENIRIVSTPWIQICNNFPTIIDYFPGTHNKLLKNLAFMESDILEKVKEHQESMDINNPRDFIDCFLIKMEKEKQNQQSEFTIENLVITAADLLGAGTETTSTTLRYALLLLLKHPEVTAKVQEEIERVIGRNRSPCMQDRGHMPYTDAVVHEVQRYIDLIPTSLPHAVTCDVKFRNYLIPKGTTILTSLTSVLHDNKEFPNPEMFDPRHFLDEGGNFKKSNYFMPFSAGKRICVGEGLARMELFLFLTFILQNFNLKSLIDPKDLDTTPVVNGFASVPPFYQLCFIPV
Sequence of CYP2E1 (P05181 whole entry): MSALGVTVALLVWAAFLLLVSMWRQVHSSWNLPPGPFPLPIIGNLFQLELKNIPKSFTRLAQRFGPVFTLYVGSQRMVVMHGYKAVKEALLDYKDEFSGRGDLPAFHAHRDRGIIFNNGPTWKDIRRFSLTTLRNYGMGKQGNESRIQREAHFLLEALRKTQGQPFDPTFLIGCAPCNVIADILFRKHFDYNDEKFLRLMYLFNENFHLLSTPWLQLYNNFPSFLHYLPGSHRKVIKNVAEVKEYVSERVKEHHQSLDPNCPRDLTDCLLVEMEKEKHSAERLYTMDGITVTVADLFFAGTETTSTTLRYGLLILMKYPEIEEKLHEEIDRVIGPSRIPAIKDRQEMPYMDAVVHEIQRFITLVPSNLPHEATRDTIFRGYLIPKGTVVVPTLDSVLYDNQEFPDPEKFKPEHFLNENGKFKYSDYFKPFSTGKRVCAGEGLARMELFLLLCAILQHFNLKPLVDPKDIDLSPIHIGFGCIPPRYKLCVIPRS
Sequence of breast cancer resistance protein (Q9UNQ0 whole entry): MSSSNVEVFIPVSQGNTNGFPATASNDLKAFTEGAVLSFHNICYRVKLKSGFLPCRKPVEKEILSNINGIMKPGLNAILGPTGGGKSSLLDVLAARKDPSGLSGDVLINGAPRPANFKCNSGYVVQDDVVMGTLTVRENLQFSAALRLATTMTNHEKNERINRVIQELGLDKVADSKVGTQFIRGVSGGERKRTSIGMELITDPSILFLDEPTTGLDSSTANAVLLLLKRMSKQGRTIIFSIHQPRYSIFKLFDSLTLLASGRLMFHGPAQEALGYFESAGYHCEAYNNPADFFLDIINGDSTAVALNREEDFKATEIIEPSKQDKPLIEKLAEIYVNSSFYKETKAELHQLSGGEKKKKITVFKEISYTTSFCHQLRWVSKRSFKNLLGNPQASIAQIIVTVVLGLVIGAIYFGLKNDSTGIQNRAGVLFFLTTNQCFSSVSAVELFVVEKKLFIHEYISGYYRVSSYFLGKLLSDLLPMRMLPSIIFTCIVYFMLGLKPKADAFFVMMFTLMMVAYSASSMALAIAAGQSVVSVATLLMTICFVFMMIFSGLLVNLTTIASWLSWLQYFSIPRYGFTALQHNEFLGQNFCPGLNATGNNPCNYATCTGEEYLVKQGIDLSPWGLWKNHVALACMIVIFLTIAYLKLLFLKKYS
Sequence of MATE1 (Q96FL8 whole entry): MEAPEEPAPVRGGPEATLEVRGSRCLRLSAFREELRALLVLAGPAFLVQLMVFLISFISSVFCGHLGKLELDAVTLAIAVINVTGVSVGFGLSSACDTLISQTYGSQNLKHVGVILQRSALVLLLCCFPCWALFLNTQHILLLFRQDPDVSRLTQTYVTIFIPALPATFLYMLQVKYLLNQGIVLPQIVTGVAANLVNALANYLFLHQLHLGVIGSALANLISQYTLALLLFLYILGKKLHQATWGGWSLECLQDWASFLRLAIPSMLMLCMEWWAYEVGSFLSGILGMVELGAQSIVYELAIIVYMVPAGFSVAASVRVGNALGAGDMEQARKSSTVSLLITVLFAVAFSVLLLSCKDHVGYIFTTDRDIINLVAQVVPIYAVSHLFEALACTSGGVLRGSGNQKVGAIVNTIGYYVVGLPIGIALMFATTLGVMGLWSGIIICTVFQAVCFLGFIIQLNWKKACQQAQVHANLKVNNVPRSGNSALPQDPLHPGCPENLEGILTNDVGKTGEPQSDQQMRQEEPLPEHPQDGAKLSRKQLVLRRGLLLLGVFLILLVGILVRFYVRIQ
Sequence of OAT1 (Q4U2R8 whole entry): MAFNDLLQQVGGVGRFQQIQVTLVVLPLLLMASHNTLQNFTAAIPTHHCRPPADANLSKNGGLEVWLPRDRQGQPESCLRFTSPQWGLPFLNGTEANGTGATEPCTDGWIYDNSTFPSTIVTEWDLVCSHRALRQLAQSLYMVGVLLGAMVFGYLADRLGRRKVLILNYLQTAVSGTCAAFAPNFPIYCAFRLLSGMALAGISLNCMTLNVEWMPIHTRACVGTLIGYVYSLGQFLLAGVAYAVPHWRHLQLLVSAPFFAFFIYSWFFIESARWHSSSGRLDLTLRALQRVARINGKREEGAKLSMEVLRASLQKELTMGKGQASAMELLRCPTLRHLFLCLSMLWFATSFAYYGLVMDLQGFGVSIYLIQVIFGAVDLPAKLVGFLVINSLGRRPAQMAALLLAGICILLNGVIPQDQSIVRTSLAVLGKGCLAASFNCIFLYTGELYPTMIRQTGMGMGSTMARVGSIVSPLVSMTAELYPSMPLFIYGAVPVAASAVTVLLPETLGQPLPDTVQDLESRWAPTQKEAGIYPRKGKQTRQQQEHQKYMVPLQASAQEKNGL

Cc1ncc(OC[C@@]2(c3cccc(F)c3)C[C@H]2C(=O)Nc2ccc(F)cn2)c(C)n1 [Lemborexant, (1R,2S)‐2‐{[(2,4‐dimethylpyrimidin‐5‐yl)oxy]methyl}‐2‐(3‐fluorophenyl)‐N‐(5‐fluoropyridin‐2‐yl)cyclopropanecarboxamide]
inhibition of CYP2C19 (CYP2C19): do not inhibit | inhibition of CYP2E1 (CYP2E1): do not inhibit | inhibition of breast cancer resistance protein [1]: do not inhibit | inhibition of OAT1 (OAT1): do not inhibit | inhibition of MATE1 (MATE1): do not inhibit | tolerability [2]: well tolerated
